# Assay results as given in doi:10.1101/2025.08.24.671973v1 (biorxiv, 2025).
# What was measured:
# [1] = biological target: CHI3L1/galectin-3 interaction (hCHI3L1-His with galectin-3-GST) (Homo sapiens, UniProt P36222); test: AlphaLISA, inhibition of CHI3L1/galectin-3 interaction; type: binding
# [2] = biological target: CHI3L1 (hCHI3L1-His) (Homo sapiens, UniProt P36222); test: SPR; type: binding
# CHI3L1 (hCHI3L1-His), sequence (P36222 22-383): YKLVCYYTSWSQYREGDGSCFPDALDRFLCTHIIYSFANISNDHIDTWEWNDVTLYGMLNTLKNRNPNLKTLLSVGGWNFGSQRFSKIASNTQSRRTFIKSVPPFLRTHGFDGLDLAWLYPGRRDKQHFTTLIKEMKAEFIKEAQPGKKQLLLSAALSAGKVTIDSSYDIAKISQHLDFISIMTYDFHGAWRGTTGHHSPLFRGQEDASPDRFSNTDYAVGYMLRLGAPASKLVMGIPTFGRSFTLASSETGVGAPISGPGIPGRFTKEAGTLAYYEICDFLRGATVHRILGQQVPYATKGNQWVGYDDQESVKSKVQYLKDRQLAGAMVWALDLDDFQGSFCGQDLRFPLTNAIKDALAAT
# CHI3L1/galectin-3 interaction (hCHI3L1-His with galectin-3-GST), sequence (P36222 22-383): as above
# CHI3L1/galectin-3 interaction (hCHI3L1-His with galectin-3-GST), sequence (P17931 2-250 partner): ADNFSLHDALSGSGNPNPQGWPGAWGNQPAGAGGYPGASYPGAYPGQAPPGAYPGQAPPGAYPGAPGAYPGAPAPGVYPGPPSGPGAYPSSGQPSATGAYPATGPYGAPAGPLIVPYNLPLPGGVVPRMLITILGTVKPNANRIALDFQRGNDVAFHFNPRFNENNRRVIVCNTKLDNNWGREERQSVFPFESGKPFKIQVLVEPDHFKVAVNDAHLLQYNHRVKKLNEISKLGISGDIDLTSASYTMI
IC50 [1] [µM],Kd [2] [µM],SMILES
23.5 ± 2,10.4 ± 1,CC1Cc2ccccc2CN1C(=O)NCc1cc(=O)n2ccccc2n1 (stereo not shown) [1-4]
15.4 ± 4.7,7.4 ± 0.78,Cc1c(NC(=O)Cn2cnc3sccc3c2=O)cnn1C1CCCC1 [1-7]
